Results as given in ChEMBL document CHEMBL3576781, “Substituted Bis-THF Protease Inhibitors with Improved Potency against Highly Resistant Mature HIV-1 Protease PR20” (J Med Chem, 2015).
Activity calls are given as the source filed them. The calls are words filed in the database; no cut-off is given here.

Assays:
[1] = Binding affinity to HIV1 protease PR20 mutant expressed in Escherichia coli BL21 (DE3) assessed as ligand dissociation constant by ITC method; parameters: species or system Human immunodeficiency virus 1
[2] = system: Human immunodeficiency virus 1; assay: Antiviral activity against HIV1 LAI infected in human MT2 cells by MTT assay; assay type: functional, organism-based; settings: Human immunodeficiency virus 1, LAI
[3] = system: Human immunodeficiency virus 1; assay: Inhibition of N-terminal autoprocessing of transframe region-comprising HIV1 protease PR20 mutant precursor up to 100 uM by SDS-PAGE method
Protease = Protease (Human immunodeficiency virus 1, UniProt Q9YQ12); assay: Inhibition of wild type HIV1 protease
[4] = Inhibition of HIV1 protease PR20 mutant expressed in Escherichia coli BL21 (DE3) incubated for 5 mins followed by Abz-Thr-Ile-Nle-p-nitro-Phe-GlnArg-NH2 substrate addition and measured over 5 mins by microplate reader based assay; parameters: species or system Human immunodeficiency virus 1
[5] = system: Human immunodeficiency virus 1; assay: Antiviral activity against HIV1 by cell based MTT assay; assay type: functional, organism-based

Sequence of Protease (Q9YQ12 whole entry): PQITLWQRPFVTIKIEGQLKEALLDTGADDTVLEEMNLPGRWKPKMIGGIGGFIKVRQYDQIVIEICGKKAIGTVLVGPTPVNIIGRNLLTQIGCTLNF

| Structure (SMILES) | Kd [1] [nM] | EC50 [2] [nM] | inhibition [3] | Ki (Protease) [nM] | Ki [4] [nM] | IC50 [5] [nM] |
| --- | --- | --- | --- | --- | --- | --- |
| CC(C)CN(C[C@@H](O)[C@H](Cc1ccccc1)NC(=O)O[C@H]1CO[C@H]2OCC[C@H]21)S(=O)(=O)c1ccc(N)cc1 | 41 |  |  |  |  |  |
| CC(C)CN(C[C@@H](O)[C@H](Cc1ccccc1)NC(=O)O[C@H]1CO[C@H]2OCC(F)(F)[C@H]21)S(=O)(=O)c1ccc(N)cc1 |  | 3 | inactive | 0.0058 | 1.7 |  |
| COc1ccc(S(=O)(=O)N(CC(C)C)C[C@@H](O)[C@H](Cc2ccccc2)NC(=O)O[C@H]2CO[C@H]3OC[C@H](OC)[C@H]32)cc1 |  |  | inactive | 0.0029 | 4.3 | 2.4 |
